From US20240299393A1, “SMALL MOLECULE DISRUPTORS OF PROTEIN INTERACTIONS IN HISTONE DEACETYLASE COMPLEXES” (Dana-Farber Cancer Institute, Inc., priority 2021, published 2024)
“Also recorded” adds a separate entry of the source.

Assays:
[1] = tested on: mouse frontal cortex transcriptome; test: RNA-seq of mouse frontal cortex after chronic treatment; type: in vivo
Protocol: (§1) For the pilot RT-qPCR experiment, in addition to the vehicle condition (ethanol 100%/kolliphor/saline 0.9% in a proportion of 1:1:14.4; for the 50 mg/kg dose, 14 μL NaOH 1M were also added), three doses (mg/kg) of E6R were tested: 5, 15, and 50, with 4 (vehicle) or 3 (E6R) animals per group. A dose of 50 mg/kg was picked to conduct further experiments. For the RNA-Seq experiment, E6R was dissolved in a vehicle solution containing saline 55% v/v, DMSO 34% v/v, ethanol 5% v/v, kolliphor EL (Sigma-Aldrich, MO, USA) 5% v/v, NaOH 1M 1% v/v. The vehicle group received the same solution. Animals were injected daily by intraperitoneal (I.P.) injection with 5 μL/g of the solution (50 mg/kg of the drug or vehicle) at 11 am for 10 days. Animal wellness was verified by daily visual inspection and weighing. […] On the 11th day, animals were sacrificed by bleeding via heart puncture under carbon dioxide anesthesia. The brains were quickly removed and the bilateral frontal cortex (bregma 1.90 to 1.40 mm) was dissected followed by total RNA extraction. The spleens were also collected in the pilot RT-qPCR experiments.
Qiagen™ RNeasy mini kits (Valencia, CA) were used following the manufacturer's protocol. Extracted RNA was further purified using Qiagen™ RNeasy Mini columns to eliminate any trace of DNA, and dissolve in nuclease-free water. Purity of the RNA preparation was determined as the 260/280 nm ratio with expected values between 2 and 2.3. Samples were stored at −80° C. before being used for RT-qPCR (pilot experiment), or shipped to the GENEWIZ company on dry ice for library construction and RNA sequencing.
RNA integrity (RIN) and yield were assessed on an Agilent 2100 Bioanalyzer, and samples with RIN larger than 7 were selected. Prior to the RNA-Seq, ribosomal RNA was depleted from the samples using the RiboMinus™ Human/Mouse Transcriptome Isolation Kit (Thermo Fisher Scientific, Waltham, MA). All samples were sequenced on an Illumina Hi-Seq sequencer. ˜29 million 50 bp single-end reads per sample were obtained. Sequencing adapters were removed using Trimmomatic v.0.33 [Bolger et al 2014]. Quality control at each processing step was performed using the FastQC tool v0.11.2 (quality base calls, GC content distribution, duplicate levels, complexity level) [Andrews 2010]. The Mouse GRCm38/mm10 reference genome was obtained from UCSC Genome Browser Gateway (http://hgdownload.soe.ucsc.edu/goldenPath/mm10/bigZips/chromFa.tar.gz), and the corresponding gene annotation file was obtained from Ensemble (ftp://ftp.ensembl.org/pub/release-83/gtf/mus_musculus/Mus_musculus.GRCm38.83.gtf.gz) on Feb. 20, 2016. Only autosomes, mitochondrial, and sex chromosomes were used. Reads were aligned using the subread v.1.6.2 aligner [Liao et al 2013]. Gene counts were obtained for each sample based on the last […] version of Ensembl transcriptome (v.87) using the featureCounts v.1.2.6 software [Liao et al 2014]. RNA-Seq counts were preprocessed and analyzed for differential expression using the edgeR v.3.24.3 [Robinson et al 2010] R package. P-values for differentially expressed genes were corrected using a false discovery rate (FDR) multiple testing correction method [Benjamini & Hochberg 1995]. Functional enrichment analysis (GO, KEGG) was performed using enrichr [Chen et al 2013]. Enrichment analysis using custom signatures was performed using hypergeometric test in the clusterProfiler v.3.10.1 R package [Yu et al 2012]. […]

[2] = Tolerability of chronic treatment in mice; type: in vivo; conditions: 50 mg/kg I.P. daily for 10 days
Protocol: as §1

## C[C@@H](NC(=O)c1c(O)n2ccccc2nc1=O)c1ccccc1 [E6R, 4-hydroxy-2-oxo-N—((R)-1-phenylethyl)-3,4-dihydro-2H-pyrido[, 2-a]pyrimidine-3-carboxamide]
[1]; 50 mg/kg ten days
  fewer transcriptomic changes compared to conditional Hdac2 deletion: approximately 80 fold
[1]; HDAC2 cKO mice, 50 mg/kg
  differentially expressed genes between HDAC2 cKO+vehicle and HDAC2 cKO+compound: Nine
[1]; WT mice, 50 mg/kg I.P. daily 10 days, FDR=0.3, p<0.05, Example 9
  genes with altered expression in mouse FC relative to WT+vehicle: 39 genes
[1]; WT mice, 50 mg/kg ten days, Example 11
  genes significantly affected in the FC: 48 genes
[1]; WT mice, 50 mg/kg, vs WT+vehicle
  Homer1 expression in FC: downregulated
[2]
  tolerability, behavior and body mass: No abnormal behavior or significant body mass decrease (>5%); also recorded: well-tolerated
